Reference: patent publication US20260272865A1, “HYDROXYPHENYL PROPANOATE COMPOUNDS FOR TUMOUR IMMUNOTHERAPY, COMPOSITIONS AND USES THEREOF” (UTI LIMITED PARTNERSHIP, priority 2023, published 2026)
“Also recorded” adds a separate entry of the source.

What was measured:
[1] = system: GSDMD regulated cytokines; test: Cytokine level of tumour interstitial fluid of M3-9-M^OVA tumours; type: in vivo, mouse
Description: Cells were seeded in a 96-well plate at a density of 0.5-1.0×10^6 cells/well and treated with PRR agonists in combination with or without metabolites. To measure cytokine levels, culture supernatant was collected at specific timepoints. To check cytokine levels of the tumour interstitial fluid, samples were prepared following the protocol, as mentioned by Kim et al (Nat. Commun. 8, (2017)). Cellular IL-1 levels were determined by incubating HEK-Blue™ IL-1β cells ([…]) with the collected culture supernatant and measuring the SEAP levels in the culture medium using QUANTI-Blue™ solution ([…]). Multiplexed quantification of cytokines, chemokines, and growth factors was also conducted by Eve Technologies Corp. (Calgary, Alberta) using the Luminex™ 200 system (Luminex, Austin, TX, USA).

B16.F10 melanoma tumours = test: Subcutaneous B16.F10 melanoma in IMDM-CR mice: overall survival; type: in vivo, mouse

Q: Which results are given for `O=C(O)CCc1ccccc1O` [Compound I-1, 3-(2-hydroxyphenyl)propanoic acid]?
A: IL-1β release ([1]; M3-9-M^OVA tumours): notable increase; secretion of GSDMD regulated cytokines / cytokine milieu in TME ([1]; male JAX C57BL/6 mice, 14 days, treatment from day 1, listed as 3,2-HPP): impacted the secretion; also recorded: significantly shifts; overall survival, treatment initiated seven days after implantation (B16.F10 melanoma tumours; IMDM-CR mice, B16.F10, treatment started 7 days after implantation): still effective; overall survival, combination with anti-PD-L1 vs anti-PD-L1 alone (B16.F10 melanoma tumours; female IMDM-CR mice, B16.F10 tumours, 3,2-HPP i.p. plus anti-PD-L1): further improvement; overall survival / immune surveillance of B16.F10 melanoma (B16.F10 melanoma tumours; female IMDM-CR mice, i.p. treatment from day 1): increased the overall survival
